Assay results taken from ChEMBL document CHEMBL1136546, “SLV310, a novel, potential antipsychotic, combining potent dopamine D2 receptor antagonism with serotonin reuptake inhibition” (Bioorg Med Chem Lett, 2003).

Tests used:
[1] = target: Sodium-dependent serotonin transporter (Rattus norvegicus, UniProt P31652); experiment: In vitro binding affinity for serotonin reuptake sites in rat frontal cortex membranes by [3H]paroxetine displacement.; format: cell membranes, Membrane
D(2) dopamine receptor = D(2) dopamine receptor (Homo sapiens, UniProt P14416); experiment: In vitro binding affinity at human cloned dopamine receptor D2 (long) stably expressed in CHO cells by [3H]spiperone displacement.; format: cell-based
Sequence of D(2) dopamine receptor (P14416 whole entry): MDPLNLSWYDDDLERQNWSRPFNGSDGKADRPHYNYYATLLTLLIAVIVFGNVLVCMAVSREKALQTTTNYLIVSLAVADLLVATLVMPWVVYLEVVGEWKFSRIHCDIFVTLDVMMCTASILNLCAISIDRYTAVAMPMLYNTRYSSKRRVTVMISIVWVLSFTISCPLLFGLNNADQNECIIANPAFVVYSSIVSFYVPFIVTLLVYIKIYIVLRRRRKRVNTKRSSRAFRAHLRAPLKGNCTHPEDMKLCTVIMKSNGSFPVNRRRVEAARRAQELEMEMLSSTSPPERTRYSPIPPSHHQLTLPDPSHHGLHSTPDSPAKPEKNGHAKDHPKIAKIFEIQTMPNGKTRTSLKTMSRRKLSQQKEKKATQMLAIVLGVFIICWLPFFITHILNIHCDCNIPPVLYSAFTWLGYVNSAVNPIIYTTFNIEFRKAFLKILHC

Mus musculus [2] = experiment: Dopaminergic antagonistic activity was determined in vivo by antagonising apomorphine induced climbing behavior (APO) in mice by oral administration; format: functional
Mus musculus [3] = experiment: Serotonin reuptake activity was determined in vivo by potentiation of 5-hydroxytryptophan induced serotonin syndrome like behavior in mice by oral administration; format: functional
Rattus norvegicus = experiment: Effective dose to exhibit antipsychotic potency after oral administration in rats was determined; format: functional

Sequence of Sodium-dependent serotonin transporter (P31652 whole entry): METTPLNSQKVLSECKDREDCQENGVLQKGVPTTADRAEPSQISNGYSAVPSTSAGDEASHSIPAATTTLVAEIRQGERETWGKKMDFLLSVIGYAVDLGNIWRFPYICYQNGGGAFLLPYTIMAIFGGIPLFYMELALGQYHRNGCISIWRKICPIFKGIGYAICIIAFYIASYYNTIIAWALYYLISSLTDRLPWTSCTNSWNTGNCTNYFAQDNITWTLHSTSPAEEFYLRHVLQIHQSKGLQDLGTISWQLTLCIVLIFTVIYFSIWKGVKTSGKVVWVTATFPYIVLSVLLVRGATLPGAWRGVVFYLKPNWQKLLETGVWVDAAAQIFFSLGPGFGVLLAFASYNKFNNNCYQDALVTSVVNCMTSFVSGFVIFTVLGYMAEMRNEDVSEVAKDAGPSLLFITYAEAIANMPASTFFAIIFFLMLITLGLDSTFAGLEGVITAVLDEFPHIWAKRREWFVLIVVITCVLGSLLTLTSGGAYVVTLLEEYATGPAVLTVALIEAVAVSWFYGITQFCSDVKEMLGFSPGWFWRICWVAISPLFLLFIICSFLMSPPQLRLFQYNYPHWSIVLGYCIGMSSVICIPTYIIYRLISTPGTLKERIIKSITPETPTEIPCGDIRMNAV

`Cc1cccc2c1C(=O)N(CCCCCN1CC=C(c3c[nH]c4ccccc34)CC1)C2=O` was tested. Which Ki [1] did it give?
The Ki was 1 nM.

What about the Ki (D(2) dopamine receptor) of the same compound?
Its Ki is 100 nM.

With `O=C1c2ccccc2C(=O)N1CCCCCN1CC=C(c2c[nH]c3ccc(Cl)cc23)CC1` as the compound, how does the Ki [1] read?
Its Ki is 16 nM.

What about the Ki (D(2) dopamine receptor) of the same compound?
Its Ki is 20 nM.

Which results are given for `Cc1ccc2c(c1)C(=O)N(CCCCCN1CC=C(c3c[nH]c4ccccc34)CC1)C2=O`?
Ki [1]: 2 nM; Ki (D(2) dopamine receptor): 40 nM

What does the source list for `O=C1c2ccccc2C(=O)N1CCCCN1CC=C(c2c[nH]c3ccc(F)cc23)CC1`?
Ki [1]: 0.6 nM; Ki (D(2) dopamine receptor): 16 nM

For `O=C1c2ccccc2C(=O)N1CCCCCN1CC=C(c2c[nH]c3ccc(F)cc23)CC1`, which ED50 (Mus musculus [2]) is on record?
Its ED50 is 5.6 mg/kg.

What about the ED50 (Mus musculus [3]) of the same compound?
The ED50 was 5.9 mg/kg.

And the ED50 (Rattus norvegicus)?
The ED50 was 17.5 mg/kg.

And the Ki [1]?
The Ki was 2.5 nM.

What about the Ki (D(2) dopamine receptor) of the same compound?
The Ki was 5 nM.

With `C1=C(c2c[nH]c3ccccc23)CCNC1` as the compound, how does the Ki [1] read?
The Ki was 6 nM.

Which results are given for `O=C1c2ccccc2C(=O)N1CCCN1CC=C(c2c[nH]c3ccc(F)cc23)CC1`?
Ki [1]: 25 nM; Ki (D(2) dopamine receptor): 20 nM

`Cc1cccc2c1C(=O)N(CCCCCN1CC=C(c3c[nH]c4ccc(F)cc34)CC1)C2=O` was tested. Which Ki [1] did it give?
The Ki was 1 nM.

And the Ki (D(2) dopamine receptor)?
The Ki was 25 nM.

With `O=C1c2cccc(F)c2C(=O)N1CCCCCN1CC=C(c2c[nH]c3ccc(F)cc23)CC1` as the compound, how does the ED50 (Mus musculus [2]) read?
The ED50 was 6.1 mg/kg.

What about the ED50 (Mus musculus [3]) of the same compound?
The ED50 was 10 mg/kg.

And the Ki [1]?
Its Ki is 0.4 nM.

What about the Ki (D(2) dopamine receptor) of the same compound?
The Ki was 12 nM.

What does the source list for `O=C1c2ccc(F)cc2C(=O)N1CCCCCN1CC=C(c2c[nH]c3ccc(F)cc23)CC1`?
ED50 (Mus musculus [2]): 5 mg/kg; ED50 (Mus musculus [3]): 10 mg/kg; Ki [1]: 1.3 nM; Ki (D(2) dopamine receptor): 10 nM

For `O=C1c2ccccc2C(=O)N1CCCCCCCN1CC=C(c2c[nH]c3ccc(F)cc23)CC1`, which Ki [1] is on record?
Its Ki is 0.8 nM.

And the Ki (D(2) dopamine receptor)?
Its Ki is 25 nM.

`O=C1c2cccc(F)c2C(=O)N1CCCCCN1CC=C(c2c[nH]c3ccccc23)CC1` was tested. Which ED50 (Mus musculus [2]) did it give?
Its ED50 is greater than 20 mg/kg.

And the ED50 (Mus musculus [3])?
The ED50 was less than 50 mg/kg.

What about the Ki [1] of the same compound?
Its Ki is 0.8 nM.

And the Ki (D(2) dopamine receptor)?
Its Ki is 25 nM.

How did the Ki [1] turn out when `Cc1ccc2c(c1)C(=O)N(CCCCCN1CC=C(c3c[nH]c4ccc(F)cc34)CC1)C2=O` was run?
Its Ki is 3 nM.

What about the Ki (D(2) dopamine receptor) of the same compound?
The Ki was 20 nM.

With `O=C1c2ccccc2C(=O)N1CCCCCN1CC=C(c2c[nH]c3ccccc23)CC1` as the compound, how does the ED50 (Mus musculus [2]) read?
The ED50 was 14 mg/kg.

And the ED50 (Mus musculus [3])?
The ED50 was 7.1 mg/kg.

And the Ki [1]?
Its Ki is 2.5 nM.

And the Ki (D(2) dopamine receptor)?
The Ki was 25 nM.

What does the source list for `O=C1c2ccc(F)cc2C(=O)N1CCCCCN1CC=C(c2c[nH]c3ccccc23)CC1`?
Ki [1]: 2 nM; Ki (D(2) dopamine receptor): 40 nM

What does the source list for `Cc1cccc2c(C3=CCN(CCCCCN4C(=O)c5ccccc5C4=O)CC3)c[nH]c12`?
Ki [1]: 1.3 nM; Ki (D(2) dopamine receptor): 40 nM

`O=C(CCCN1CCC(CCc2c[nH]c3ccccc23)CC1)c1ccc(F)cc1` was tested. Which ED50 (Mus musculus [2]) did it give?
Its ED50 is 11 mg/kg.

And the ED50 (Mus musculus [3])?
Its ED50 is greater than 30 mg/kg.

What about the Ki [1] of the same compound?
Its Ki is 2 nM.

What about the Ki (D(2) dopamine receptor) of the same compound?
Its Ki is 40 nM.

`O=C(CCCN1CCC(O)(c2ccc(Cl)cc2)CC1)c1ccc(F)cc1` [HALOPERIDOL] was tested. Which ED50 (Mus musculus [2]) did it give?
Its ED50 is 0.1 mg/kg.

For `c1ccc2c(CCC3CCNCC3)c[nH]c2c1` [INDALPINE], which Ki (D(2) dopamine receptor) is on record?
The Ki was greater than 1000 nM.
